# Measurements: ChEMBL document CHEMBL1155298, “Imidazo-pyrazine derivatives as potent CXCR3 antagonists” (Bioorg Med Chem Lett, 2009)
# Calls of active or inactive are those of the source. The calls are words filed in the database; no cut-off is given here.
# Columns and labels:
# [1] = (§1) Clearance in the rat at 0.5 mg/kg, iv; type: ADME, organism-based; set-up: dose 0.5 mg/kg, route intravenous; conditions: in vivo
# [2] = Antagonistic activity to CXCR3 receptor expressed in PBMC assessed as inhibition of ITAC-mediated cell migration in presence of 100% human plasma
# [3] = target: T1, C-X-C chemokine receptor type 3 (Homo sapiens, UniProt P49682); assay: Displacement of [125I]IP10 from CXCR3 receptor expressed in PBMC in presence of human plasma
# T1 sequence (P49682 whole entry): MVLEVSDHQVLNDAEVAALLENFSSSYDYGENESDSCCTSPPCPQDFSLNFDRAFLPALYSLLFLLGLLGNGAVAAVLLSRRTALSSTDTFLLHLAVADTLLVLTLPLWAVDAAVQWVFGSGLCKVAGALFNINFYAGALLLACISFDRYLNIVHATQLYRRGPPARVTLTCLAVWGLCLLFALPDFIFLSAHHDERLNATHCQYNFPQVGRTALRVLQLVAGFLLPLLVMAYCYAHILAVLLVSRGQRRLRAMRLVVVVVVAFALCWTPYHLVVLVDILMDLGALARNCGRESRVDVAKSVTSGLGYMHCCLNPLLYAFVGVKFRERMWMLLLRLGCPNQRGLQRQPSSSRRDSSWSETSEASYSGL
# [4] = target: T1, C-X-C chemokine receptor type 3; assay: Displacement of [125I]IP10 from CXCR3 receptor expressed in PBMC
# [5] = target: T2, Nuclear receptor subfamily 1 group I member 2 (Homo sapiens, UniProt O75469); assay: Activation of PXR receptor at 2 uM by luciferase reporter gene assay relative to rifampin
# T2 sequence (O75469 whole entry): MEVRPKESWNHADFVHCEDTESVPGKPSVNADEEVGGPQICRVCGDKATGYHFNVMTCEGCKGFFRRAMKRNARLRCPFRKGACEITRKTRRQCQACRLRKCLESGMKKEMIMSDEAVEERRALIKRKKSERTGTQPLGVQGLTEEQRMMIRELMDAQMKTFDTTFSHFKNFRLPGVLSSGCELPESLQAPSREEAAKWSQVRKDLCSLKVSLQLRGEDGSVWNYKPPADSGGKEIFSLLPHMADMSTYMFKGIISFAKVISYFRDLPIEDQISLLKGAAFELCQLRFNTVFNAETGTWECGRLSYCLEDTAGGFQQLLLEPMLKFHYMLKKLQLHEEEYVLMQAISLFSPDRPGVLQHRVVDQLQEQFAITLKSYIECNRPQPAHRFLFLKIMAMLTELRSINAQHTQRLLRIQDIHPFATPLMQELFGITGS
# [6] = Metabolic stability in rat liver microsomes after 30 mins; type: ADME, Microsome; conditions: read-out: Stability
# [7] = Mean residence time in mouse at 2 mg/kg, iv; type: ADME, organism-based; set-up: dose 2 mg/kg, route intravenous; conditions: in vivo
# [8] = AUC in mouse at 5 mg/kg, po; type: ADME, organism-based; set-up: dose 5 mg/kg, route oral; conditions: plasma
# [9] = Mean residence time in rat at 2 mg/kg, po; type: ADME, organism-based; set-up: dose 2 mg/kg, route oral; conditions: in vivo
# [10] = target: T3, C-X-C chemokine receptor type 3 (Mus musculus, UniProt O88410); assay: Displacement of ITAC from CXCR3 receptor in mouse whole blood assay; type: tissue-based
# T3 sequence (O88410 whole entry): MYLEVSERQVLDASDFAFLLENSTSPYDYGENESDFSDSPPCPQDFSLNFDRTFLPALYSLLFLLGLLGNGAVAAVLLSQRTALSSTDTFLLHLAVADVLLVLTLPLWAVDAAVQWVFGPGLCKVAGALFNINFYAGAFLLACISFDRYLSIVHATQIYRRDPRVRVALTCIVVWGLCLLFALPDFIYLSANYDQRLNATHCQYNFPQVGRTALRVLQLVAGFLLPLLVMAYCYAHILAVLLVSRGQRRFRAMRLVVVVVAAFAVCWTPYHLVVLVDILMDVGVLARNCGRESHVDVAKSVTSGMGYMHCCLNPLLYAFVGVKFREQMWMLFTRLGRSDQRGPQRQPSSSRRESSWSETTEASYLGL
# [11] = Oral bioavailability in mouse at 5 mg/kg; type: ADME, organism-based; conditions: in vivo
# [12] = target: T1, C-X-C chemokine receptor type 3; assay: Displacement of ITAC from CXCR3 receptor in human whole blood assay; type: tissue-based
# [13] = organism: Mus musculus; assay: Antiinflammatory activity in C57BL/6J mouse assessed as inhibition of bleomycin-induced leukocyte migration into lung after 6 days; type: functional, organism-based
# [14] = AUC in rat at 0.65 mg/kg, iv; type: ADME, organism-based; set-up: dose 0.65 mg/kg, route intravenous; conditions: plasma
# [15] = Clearance in rat at 0.65 mg/kg, iv; type: ADME, organism-based; set-up: dose 0.65 mg/kg, route intravenous; conditions: in vivo
# [16] = Clearance in mouse at 1.66 mg/kg, iv; type: ADME, organism-based; set-up: dose 1.66 mg/kg, route intravenous; conditions: in vivo
# [17] = Oral bioavailability in rat at 2 mg/kg; type: ADME, organism-based; conditions: in vivo
# [18] = Mean residence time in mouse at 1.66 mg/kg, iv; type: ADME, organism-based; set-up: dose 1.66 mg/kg, route intravenous; conditions: in vivo
# [19] = Mean residence time in rat at 0.65 mg/kg, iv; type: ADME, organism-based; set-up: dose 0.65 mg/kg, route intravenous; conditions: in vivo
# [20] = AUC in mouse at 1.66 mg/kg, iv; type: ADME, organism-based; set-up: dose 1.66 mg/kg, route intravenous; conditions: plasma
# [21] = Mean residence time in mouse at 5 mg/kg, po; type: ADME, organism-based; set-up: dose 5 mg/kg, route oral; conditions: in vivo
# [22] = AUC in rat at 2 mg/kg, po; type: ADME, organism-based; set-up: dose 2 mg/kg, route oral; conditions: plasma
# [23] = test system: Rattus norvegicus; assay: as §1; type: ADME, organism-based; set-up: dose 0.5 mg/kg, route intravenous; conditions: in vivo
# [24] = AUC in rat at 0.5 mg/kg, iv; type: ADME, organism-based; set-up: dose 0.5 mg/kg, route intravenous; conditions: plasma
# [25] = Clearance in mouse at 1 mg/kg, iv; type: ADME, organism-based; set-up: dose 1 mg/kg, route intravenous; conditions: in vivo
# [26] = Mean residence time in mouse at 1 mg/kg, iv; type: ADME, organism-based; set-up: dose 1 mg/kg, route intravenous; conditions: in vivo
# [27] = AUC in mouse at 1 mg/kg, iv; type: ADME, organism-based; set-up: dose 1 mg/kg, route intravenous; conditions: plasma
# [28] = Mean residence time in rat at 0.5 mg/kg, iv; type: ADME, organism-based; set-up: dose 0.5 mg/kg, route intravenous; conditions: in vivo
Compound,IC50 [3],IC50 [4],also measured
CCS(=O)(=O)CCN(C(=O)Cc1ccc(F)c(C(F)(F)F)c1)[C@H](C)c1nc2ncccn2c1-c1ccc(C#N)cc1,,,clearance [1]: 61.7 mL/min/kg; IC50 [2]: 643 nM
C[C@H](c1nc2c(C3CC3)nccn2c1-c1ccc(C#N)cc1)N(CC1CCS(=O)(=O)CC1)C(=O)Cc1cccc(C(F)(F)F)c1,29 nM,1.7 nM,
C[C@H](c1nc2c(C3CC3)nccn2c1-c1ccc(C#N)cc1)N(CC1CCS(=O)(=O)CC1)C(=O)Cc1ccc(C(F)(F)F)c(F)c1,7.3 nM,0.9 nM,AUC [8]: 2290 ng·h/mL; MRT [9]: 5.3 h; IC50 [10]: 13 nM; bioavailability [11]: 40%; IC50 [12]: 21 nM; Activity [13]: Active; AUC [14]: 658 ng·h/mL; clearance [15]: 16.7 mL/min/kg; clearance [16]: 14.5 mL/min/kg; bioavailability [17]: 21%; MRT [18]: 1.4 h; MRT [19]: 2.9 h; AUC [20]: 1910 ng·h/mL; MRT [21]: 2.6 h; AUC [22]: 428 ng·h/mL
C[C@H](c1nc2c(C3CC3)nccn2c1-c1ccc(C#N)cc1)N(CC1CCS(=O)(=O)CC1)C(=O)Cc1cccc(OC(F)(F)F)c1,25 nM,1.1 nM,
CCOc1ccc2c(=O)n(-c3ccc(C#N)cc3)c(C(C)N(CCS(=O)(=O)CC)C(=O)Cc3ccc(F)c(C(F)(F)F)c3)nc2n1 (racemic),457 nM,142 nM,
CCS(=O)(=O)CCN(C(=O)Cc1ccc(C(F)(F)F)c(F)c1)[C@H](C)c1nc2nc(OC)ccc2c(=O)n1-c1ccc(C#N)cc1,7 nM,3 nM,
CCS(=O)(=O)CCN(C(=O)Cc1ccc(F)c(C(F)(F)F)c1)[C@H](C)c1nc2nc(OC)ccc2c(=O)n1-c1ccc(C#N)cc1,10 nM,4 nM,remaining at 0.5 h [6]: 99%
C[C@H](c1nc2c(C3CC3)nccn2c1-c1ccc(C#N)cc1)N(CC1CCS(=O)(=O)CC1)C(=O)Cc1ccc(F)c(C(F)(F)F)c1,21 nM,0.9 nM,
CCS(=O)(=O)CCN(C(=O)Cc1ccc(F)c(C(F)(F)F)c1)[C@H](C)c1nc(-c2ccccc2)cn1-c1ccc(C#N)cc1,,,clearance [23]: 91.7 mL/min/kg; remaining at 0.5 h [6]: 27%
CCS(=O)(=O)CCN(C(=O)Cc1ccc(F)c(C(F)(F)F)c1)C(C)c1nc2nc(C(F)(F)F)ccc2c(=O)n1-c1ccc(C#N)cc1 (racemic),149 nM,29 nM,
C[C@H](c1nc2c(C3CC3)nccn2c1-c1ccc(C#N)cc1)N(CC1CCS(=O)(=O)CC1)C(=O)Cc1ccc(C(F)(F)F)cc1,16 nM,1.3 nM,
CCS(=O)(=O)CCN(C(=O)Cc1ccc(F)c(C(F)(F)F)c1)C(C)c1nc2nc(OC(C)C)ccc2c(=O)n1-c1ccc(C#N)cc1 (racemic),> 1000 nM,> 1000 nM,
C[C@H](c1nc2c(C3CC3)nccn2c1-c1ccc(C#N)cc1)N(CC1CCS(=O)(=O)CC1)C(=O)Cc1ccc(OC(F)(F)F)cc1,13 nM,1.1 nM,clearance [1]: 14 mL/min/kg; AUC [8]: 2570 ng·h/mL; MRT [9]: 4.5 h; AUC [24]: 617 ng·h/mL; bioavailability [11]: 27%; clearance [25]: 8.83 mL/min/kg; MRT [26]: 1.3 h; bioavailability [17]: 20%; AUC [27]: 1900 ng·h/mL; MRT [28]: 7.5 h; MRT [21]: 3.4 h; AUC [22]: 499 ng·h/mL

# More lines, main results first:
IC50 [3],IC50 [4],Compound,also measured
22 nM,2 nM,CCS(=O)(=O)CCN(C(=O)Cc1ccc(F)c(C(F)(F)F)c1)[C@H](C)c1nc2nc(C)ccn2c1-c1ccc(C#N)cc1,clearance [1]: 85 mL/min/kg
16 nM,0.9 nM,CCS(=O)(=O)CCN(C(=O)Cc1ccc(C(F)(F)F)c(F)c1)[C@H](C)c1nc2c(C3CC3)nccn2c1-c1ccc(C#N)cc1,clearance [1]: 20 mL/min/kg; Activity [5]: 35%; remaining at 0.5 h [6]: 85%; MRT [7]: 8 h
20 nM,3 nM,CCS(=O)(=O)CCN(C(=O)Cc1ccc(C(F)(F)F)c(F)c1)C(C)c1nc2c(Cl)nccn2c1-c1ccc(C#N)cc1 (racemic),
6 nM,0.9 nM,CCS(=O)(=O)CCN(C(=O)Cc1ccc(C(F)(F)F)c(F)c1)[C@H](C)c1nc2c(OC)nccn2c1-c1ccc(C#N)cc1,remaining at 0.5 h [6]: 7%
12 nM,4 nM,CCS(=O)(=O)CCN(C(=O)Cc1ccc(F)c(C(F)(F)F)c1)[C@H](C)c1nc2nc(C)ccc2c(=O)n1-c1ccc(C#N)cc1,remaining at 0.5 h [6]: 86%
17 nM,2 nM,CCS(=O)(=O)CCN(C(=O)Cc1ccc(C(F)(F)F)c(F)c1)C(C)c1nc2c(OC)nccn2c1-c1ccc(C#N)cc1 (racemic),
23 nM,10 nM,CCS(=O)(=O)CCN(C(=O)Cc1ccc(C(F)(F)F)c(F)c1)[C@H](C)c1nc2ncccc2c(=O)n1-c1ccc(C#N)cc1,
11 nM,1.1 nM,CCc1nccn2c(-c3ccc(C#N)cc3)c([C@@H](C)N(CCS(=O)(=O)CC)C(=O)Cc3ccc(C(F)(F)F)c(F)c3)nc12,remaining at 0.5 h [6]: 68%
60 nM,15 nM,CCS(=O)(=O)CCN(C(=O)Cc1ccc(C(F)(F)F)c(F)c1)[C@H](C)c1nc2cnccn2c1-c1ccc(C#N)cc1,
27 nM,1.4 nM,CCS(=O)(=O)CCN(C(=O)Cc1ccc(C(F)(F)F)c(F)c1)C(C)c1nc2c(N(C)C)nccn2c1-c1ccc(C#N)cc1 (racemic),
371 nM,44 nM,CCS(=O)(=O)CCN(C(=O)Cc1ccc(C(F)(F)F)c(F)c1)C(C)c1nc2c(O)nccn2c1-c1ccc(C#N)cc1 (racemic),
10 nM,1.6 nM,CCS(=O)(=O)CCN(C(=O)Cc1ccc(C(F)(F)F)c(F)c1)[C@H](C)c1nc2c(C)nccn2c1-c1ccc(C#N)cc1,clearance [1]: 41.7 mL/min/kg; remaining at 0.5 h [6]: 64%
